Reference: patent US10023591B2, “Heterocyclic derivatives and use thereof” (C&C RESEARCH LABORATORIES, priority 2014, dated 2018)

Experiments:
STAT1 = STAT1 reporter gene assay (luciferase), U2OS stable cell line pGL4-STAT1-TA-luc, IFN-γ stimulation; assay type: cell-based, human; conditions: Homo sapiens, IFN-γ 50 ng/mL, 8 hours, read-out: IC50 (μM) pSTAT1
In short: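 U2OS cells stably carrying a STAT1-driven luciferase reporter were treated with serially diluted compounds plus IFN-γ (50 ng/mL final) for 8 h at 37 °C in 10% FBS medium. Luciferase read after lysis; parallel plate assessed for cytotoxicity by CellTiter-Glo.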

[1] = test system: MDA-MB-468 breast cancer cell line; experiment: Cell growth inhibition assay, MDA-MB-468 (CellTiter-Glo); assay type: cell-based; conditions: Homo sapiens, MDA-MB-468, 96 hours
Procedure: (§1) The inhibitory effects of the compounds of the present invention against the growth of cancer cells were evaluated as shown below. The cancer cell lines including prostate cancer cell lines (LNCaP, DU-145), stomach cancer cell line (NCI-N87), and breast cancer cell lines (MDA-MB-468) were cultured under the protocol provided by each supplier. A medium supplemented with 10 ng/mL of IL-6 was used for LNCaP, a prostate cancer cell line, when treated with a drug. Each type of cells to be used in experiments was sub-cultured in a 96-well plate by counting the exact number of cells using Tali™ Image-based Cytometer (Life Technologies). In a 96-well plate, DU-145 was employed with 3,000 cells/well; NCI-N87 was employed with 5,000 cells/well; and LNCaP and MDA-MB-468 were employed with 10,000 cells/well. The cells were treated with the compounds listed in Examples which were diluted in various concentrations. Upon completion of the compounds treatment, LNCaP, DU-145, NCI-N87 cells were cultured at 37° C. under 5% CO2 for 96 hours, and MDA-MB-468 cells were cultured at 37° C. in air for 96 hours. Subsequently, the cells were observed under microscope and drug precipitation and particular findings were investigated and recorded. And then, the 96-well plate was placed at room temperature for 30 minutes, added with 20 pt/well of CellTiter-Glo solution (Cat No. G7573, Promega) and shaken for 10 minutes, followed by being subjected to the measurement using PHERAstar™ microplate reader (BMG LABTECH) according to the supplier's general luminometer protocol. Wells where only culture liquid added without cell plating were used as a negative control, whereas wells where culture liquid containing 0.1% DMSO instead of the compounds listed in Examples were used as a positive control.

[2] = test system: NCI-N87 stomach cancer cell line; experiment: Cell growth inhibition assay, NCI-N87 (CellTiter-Glo); assay type: cell-based; conditions: Homo sapiens; NCI-N87, 5,000 cells/well, 96 hours
In short: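 Cells seeded at 3,000 (DU-145), 5,000 (NCI-N87) or 10,000 (LNCaP, MDA-MB-468) per well, LNCaP in medium with 10 ng/mL IL-6. Serially diluted compound for 96 h at 37 °C (MDA-MB-468 in air, others 5% CO2); viability by CellTiter-Glo luminescence versus 0.1% DMSO wells.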

STAT3 = STAT3 reporter gene assay (luciferase), LNCaP stable cell line pSTAT3-TA-luc, IL-6 stimulation; assay type: cell-based, human; conditions: Homo sapiens
In short: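 LNCaP cells stably carrying pSTAT3-TA-luc were plated 24 h in 3% DCC-FBS medium, then given compound followed by IL-6 (10 ng/mL final) for 24 h at 37 °C. Luciferase was read from lysates, with CellTiter-Glo viability on a duplicate plate. Stimulated 0.1% DMSO wells served as uninhibited control.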

[3] = test system: DU-145 prostate cancer cell line; experiment: Cell growth inhibition assay, DU-145 (CellTiter-Glo); assay type: cell-based; conditions: Homo sapiens; DU-145, 3,000 cells/well, 96 hours
Procedure: as §1

[4] = test system: LNCaP prostate cancer cell line; experiment: Cell growth inhibition assay, LNCaP (CellTiter-Glo); assay type: cell-based; conditions: Homo sapiens; LNCaP, 10,000 cells/well, medium with 10 ng/mL IL-6, 96 hours
Procedure: as §1

Row | Compound | IC50 (STAT1) [µM] | IC50 [1] [µM] | IC50 [2] [µM] | IC50 (STAT3) [µM] | IC50 [3] [µM] | IC50 [4] [µM]
1 | CC(C)(c1ccc2sc(C(=O)Nc3cc(Cl)nc(Oc4ccc(OC(F)(F)F)cc4)c3)cc2c1)S(C)(=O)=O [Example 84, N-(2-chloro-6-(4-(trifluoromethoxy)phenoxy)pyridin-4-yl)-5-(2-(methylsulfonyl)propan-2-yl)benzo[b]thiophene-2-carboxamide] | > 50 | 0.0026 | 0.02 | 0.0065 | – | –
2 | CC(C)(c1ccc2sc(C(=O)Nc3cc(Cl)nc(Oc4csc(C(F)(F)F)c4)c3)cc2c1)S(C)(=O)=O [Example 117, N-(2-chloro-6-((5-(trifluoromethyl)thiophen-3-yl)oxy)pyridin-4-yl)-5-(2-(methylsulfonyl)propan-2-yl)benzo[b]thiophene-2-carboxamide] | > 50 | 0.0053 | 0.037 | 0.028 | – | –
3 | CC(C)(c1ccc2sc(C(=O)Nc3cc(Cl)nc(Oc4ccsc4Cl)c3)cc2c1)S(C)(=O)=O [Example 121, N-(2-chloro-6-((2-chlorothiophen-3-yl)oxy)pyridin-4-yl)-5-(2-(methylsulfonyl)propan-2-yl)benzo[b]thiophene-2-carboxamide] | > 50 | 0.027 | 0.15 | 0.027 | – | –
4 | Cc1csc(Oc2cc(NC(=O)c3cc4cc(C(C)(C)S(C)(=O)=O)ccc4s3)cc(Cl)n2)n1 [Example 119, N-(2-chloro-6-((4-methylthiazol-2-yl)oxy)pyridin-4-yl)-5-(2-(methylsulfonyl)propan-2-yl)benzo[b]thiophene-2-carboxamide] | 12.8 | > 0.1 | 7.8 | 2.8 | – | –
5 | CC(C)(c1ccc2sc(C(=O)Nc3cc(Cl)nc(OCc4ccc(Cl)cc4)c3)cc2c1)S(C)(=O)=O [Example 86, N-(2-chloro-6-((4-chlorobenzyl)oxy)pyridin-4-yl)-5-(2-(methylsulfonyl)propan-2-yl)benzo[b]thiophene-2-carboxamide] | > 50 | 0.024 | 0.15 | 0.089 | – | –
6 | Cc1cnc(Oc2cc(NC(=O)c3cc4cc(C(C)(C)S(C)(=O)=O)ccc4s3)cc(Cl)n2)s1 [Example 109, N-(2-chloro-6-((5-methylthiazol-2-yl)oxy)pyridin-4-yl)-5-(2-(methylsulfonyl)propan-2-yl)benzo[b]thiophene-2-carboxamide] | > 50 | 0.068 | 1.7 | 0.46 | – | –
7 | CC(C)(c1ccc2sc(C(=O)Nc3cc(Cl)cc(C4(c5ccc(Cl)cc5)CC4)c3)cc2c1)S(C)(=O)=O [Example 97, N-(3-chloro-5-(1-(4-chlorophenyl)cyclopropyl)phenyl)-5-(2-(methylsulfonyl)propan-2-yl)benzo[b]thiophene-2-carboxamide] | > 50 | – | – | 0.025 | 0.016 | 0.028
8 | CC(C)(c1ccc(F)cc1)c1cc(Cl)cc(NC(=O)c2cc3cc(C(C)(C)S(C)(=O)=O)ccc3s2)c1 [Example 18, N-(3-chloro-5-(2-(4-fluorophenyl)propan-2-yl)phenyl)-5-(2-(methylsulfonyl)propan-2-yl)benzo[b]thiophene-2-carboxamide] | > 50 | – | – | 0.031 | 0.023 | 0.056
9 | CC(C)(c1ccc2sc(C(=O)Nc3cc(Cl)cc(Oc4ccc(Cl)cc4)c3)cc2c1)S(C)(=O)=O [Example 49, N-(3-chloro-5-(4-chlorophenoxy)phenyl)-5-(2-(methylsulfonyl)propan-2-yl)benzo[b]thiophene-2-carboxamide] | > 50 | – | – | 0.019 | 0.013 | 0.019
10 | CN(c1cc(Cl)cc(NC(=O)c2cc3cc(C(C)(C)S(C)(=O)=O)ccc3s2)c1)c1ccc(F)cc1F [Example 98, N-(3-chloro-5-((2,4-difluorophenyl)(methyl)amino)phenyl)-5-(2-(methylsulfonyl)propan-2-yl)benzo[b]thiophene-2-carboxamide] | > 50 | – | – | 0.031 | 0.0066 | 0.031
11 | CC(C)(c1cc(Cl)cc(NC(=O)c2cc3cc(C(C)(C)S(C)(=O)=O)ccc3s2)c1)c1ccc(Cl)s1 [Example 27, N-(3-chloro-5-(2-(5-chlorothiophen-2-yl)propan-2-yl)phenyl)-5-(2-(methylsulfonyl)propan-2-yl)benzo[b]thiophene-2-carboxamide] | > 50 | – | – | 0.075 | 0.024 | 0.029
12 | CC(C)(c1ccc(Cl)cc1)c1cc(Cl)cc(NC(=O)c2cc3cc(C(C)(C)S(C)(=O)=O)ccc3s2)c1 [Example 22, N-(3-chloro-5-(2-(4-chlorophenyl)propan-2-yl)phenyl)-5-(2-(methylsulfonyl)propan-2-yl)benzo[b]thiophene-2-carboxamide] | > 50 | – | – | 0.015 | 0.014 | 0.024
13 | COc1cc(F)cc(Oc2cc(Cl)cc(NC(=O)c3cc4cc(C(C)(C)S(C)(=O)=O)ccc4s3)c2)c1 [Example 53, N-(3-chloro-5-(3-fluoro-5-methoxyphenoxy)phenyl)-5-(2-(methylsulfonyl)propan-2-yl)benzo[b]thiophene-2-carboxamide] | > 50 | – | – | 0.033 | 0.02 | 0.037
14 | CC(C)(c1ccc2sc(C(=O)Nc3cc(Cl)cc(Oc4ccc(OC(F)(F)F)cc4)c3)cc2c1)S(C)(=O)=O [Example 37, N-(3-chloro-5-(4-(trifluoromethoxy)phenoxy)phenyl)-5-(2-(methylsulfonyl)propan-2-yl)benzo[b]thiophene-2-carboxamide] | > 50 | – | – | 0.015 | 0.0071 | 0.01
15 | CC(C)(c1ccc2sc(C(=O)Nc3cc(Cl)cc(Oc4ccc(F)c(Cl)c4)c3)cc2c1)S(C)(=O)=O [Example 51, N-(3-chloro-5-(3-chloro-4-fluorophenoxy)phenyl)-5-(2-(methylsulfonyl)propan-2-yl)benzo[b]thiophene-2-carboxamide] | > 50 | – | – | 0.022 | 0.0082 | 0.031
16 | CC(C)(c1cc2cc(C(=O)Nc3cc(Cl)cc(Oc4ccc(Cl)cc4)c3)sc2cc1Cl)S(C)(=O)=O [Example 45, 6-chloro-N-(3-chloro-5-(4-chlorophenoxy)phenyl)-5-(2-(methylsulfonyl)propan-2-yl)benzo[b]thiophene-2-carboxamide] | > 50 | – | – | 0.078 | 0.037 | 0.53
17 | CC(C)(c1ccc2sc(C(=O)Nc3cc(Cl)cc(Oc4ccc(F)cc4)c3)cc2c1)S(C)(=O)=O [Example 43, N-(3-chloro-5-(4-fluorophenoxy)phenyl)-5-(2-(methylsulfonyl)propan-2-yl)benzo[b]thiophene-2-carboxamide] | > 50 | – | – | 0.023 | 0.011 | 0.032
18 | CC1(C)CC(Oc2cc(Cl)cc(NC(=O)c3cc4cc(C(C)(C)S(C)(=O)=O)ccc4s3)c2)CC(C)(C)N1 [Example 92, N-(3-chloro-5-((2,2,6,6-tetramethylpiperidin-4-yl)oxy)phenyl)-5-(2-(methylsulfonyl)propan-2-yl)benzo[b]thiophene-2-carboxamide] | 9.6 | – | – | 5.5 | > 1.1 | > 1.1
19 | CC(C)(c1ccc2sc(C(=O)Nc3cc(Cl)nc(Oc4ccc(C(F)(F)F)cc4)c3)cc2c1)S(C)(=O)=O [Example 67, N-(2-chloro-6-(4-(trifluoromethyl)phenoxy)pyridin-4-yl)-5-(2-(methylsulfonyl)propan-2-yl)benzo[b]thiophene-2-carboxamide] | > 50 | – | 0.021 | 0.0084 | 0.0053 | 0.047
